The supplement of paper PMC8671470

What was measured:
Conditions in all cases: 72 h
BV-173 = test system: BV-173
How it was run: (§1)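 The IC50 was derived from log-logistic dose–response fitting. Each of fifteen myeloid leukaemia cell lines, seeded in RPMI 1640 within its linear growth range, was exposed in 384-well plates to five tenfold doses (1 to 10,000 nM) in duplicate for 72 h at 37 °C and 5% CO2. Luminescent ATP viability readings were normalised to vehicle and to a positive control at 10 µM before four-parameter curve fitting.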

HEL = test system: HEL
How it was run: as §1

HL-60 = test system: HL-60
How it was run: as §1

K-562 = test system: K-562
How it was run: as §1

KCL-22 = test system: KCL-22
How it was run: as §1

KG-1 = test system: KG-1
How it was run: as §1

KU-812 = test system: KU-812
How it was run: as §1

LAMA-84 = test system: LAMA-84
How it was run: as §1

ML-2 = test system: ML-2
How it was run: as §1

MOLM-13 = test system: MOLM-13
How it was run: as §1

Mono-Mac-6 = test system: Mono-Mac-6
How it was run: as §1

NOMO-1 = test system: NOMO-1
How it was run: as §1

SHI-1 = test system: SHI-1
How it was run: as §1

THP-1 = test system: THP-1
How it was run: as §1

| Compound | IC50 (cell viability) (BV-173) | IC50 (cell viability) (HEL) | IC50 (cell viability) (HL-60) | IC50 (cell viability) (K-562) | IC50 (cell viability) (KCL-22) | IC50 (cell viability) (KG-1) | IC50 (cell viability) (KU-812) | IC50 (cell viability) (LAMA-84) | IC50 (cell viability) (ML-2) | IC50 (cell viability) (MOLM-13) | IC50 (cell viability) (Mono-Mac-6) | IC50 (cell viability) (NOMO-1) | IC50 (cell viability) (SHI-1) | IC50 (cell viability) (THP-1) |
| --- | --- | --- | --- | --- | --- | --- | --- | --- | --- | --- | --- | --- | --- | --- |
| COc1ccc(S(=O)(=O)N2CCN(S(=O)(=O)c3ccc4c(c3)OCCO4)CC2)cc1 [BML283] | > 10 µM | > 10 µM | > 10 µM | > 10 µM | > 10 µM | > 10 µM | > 10 µM | > 10 µM | > 10 µM | > 10 µM | > 10 µM | > 10 µM | > 10 µM | > 10 µM |
| CN(C)C(=O)[C@H](O)[C@H](Cc1ccccc1)NC(=O)c1cc2cc(Cl)ccc2[nH]1 | > 10 µM | > 10 µM | > 10 µM | > 10 µM | > 10 µM | > 10 µM | > 10 µM | > 10 µM | > 10 µM | > 10 µM | > 10 µM | > 10 µM | > 10 µM | > 10 µM |
| O[C@H]1[C@H]2[C@H](O)CCCN2C[C@H]1O [Swainsonine] | > 10 µM | > 10 µM | > 10 µM | > 10 µM | > 10 µM | > 10 µM | > 10 µM | > 10 µM | > 10 µM | > 10 µM | > 10 µM | > 10 µM | > 10 µM | > 10 µM |
| O=C(NNc1ccccc1)c1ccncc1 [PluriSln 1] | > 10 µM | > 10 µM | 5.48 µM | 9.7 µM | 8.52 µM | > 10 µM | > 10 µM | 8.48 µM | > 10 µM | 5.72 µM | > 10 µM | > 10 µM | > 10 µM | > 10 µM |
| CC(C)(C#N)c1cc(Cn2cncn2)cc(C(C)(C)C#N)c1 [Anastrozole] | > 10 µM | > 10 µM | > 10 µM | > 10 µM | > 10 µM | > 10 µM | > 10 µM | > 10 µM | > 10 µM | > 10 µM | > 10 µM | > 10 µM | > 10 µM | > 10 µM |
| CC[C@H](C)C(=O)O[C@H]1C[C@@H](C)C=C2C=C[C@H](C)[C@H](CC[C@@H]3C[C@@H](O)CC(=O)O3)[C@H]21 [Lovastatin] | > 10 µM | > 10 µM | > 10 µM | > 10 µM | > 10 µM | > 10 µM | > 10 µM | > 10 µM | > 10 µM | > 10 µM | > 10 µM | > 10 µM | > 10 µM | > 10 µM |
| O=c1cc(-c2ccccc2)oc2cc(O)c(O)c(O)c12 [Baicalein] | > 10 µM | > 10 µM | 4.39 µM | 9.24 µM | > 10 µM | 6.35 µM | > 10 µM | > 10 µM | 8.18 µM | > 10 µM | > 10 µM | > 10 µM | > 10 µM | > 10 µM |
| CCN(CC)CCCC(C)Nc1ccnc2cc(Cl)ccc12 (stereo not drawn) [Chloroquine] | > 10 µM | > 10 µM | > 10 µM | > 10 µM | > 10 µM | > 10 µM | > 10 µM | > 10 µM | > 10 µM | > 10 µM | > 10 µM | > 10 µM | > 10 µM | > 10 µM |
| Cc1cn([C@H]2C[C@H](O)[C@@H](COP(=O)(O)OP(=O)(O)O)O2)c(=O)[nH]c1=O [Thymidine diphosphate] | 4.03 µM | > 10 µM | > 10 µM | > 10 µM | > 10 µM | > 10 µM | > 10 µM | > 10 µM | > 10 µM | > 10 µM | > 10 µM | > 10 µM | > 10 µM | > 10 µM |
| COc1ccc(CNC(=O)Nc2ncc([N+](=O)[O-])s2)cc1 | > 10 µM | > 10 µM | > 10 µM | > 10 µM | > 10 µM | > 10 µM | > 10 µM | > 10 µM | > 10 µM | > 10 µM | > 10 µM | > 10 µM | > 10 µM | > 10 µM |
| CN(C)c1cc(NC(=O)CNC(C)(C)C)c(O)c2c1C[C@H]1C[C@H]3[C@H](N(C)C)C(=O)C(C(N)=O)C(=O)[C@@]3(O)C(=O)C1C2=O (stereo partly drawn) [Tigecycline] | > 10 µM | > 10 µM | > 10 µM | > 10 µM | > 10 µM | > 10 µM | > 10 µM | > 10 µM | > 10 µM | > 10 µM | > 10 µM | > 10 µM | > 10 µM | > 10 µM |
| Cl.NC(CCC(=O)Nc1ccc([N+](=O)[O-])cc1)C(=O)O (stereo not drawn) [GPNA] | > 10 µM | > 10 µM | > 10 µM | > 10 µM | > 10 µM | > 10 µM | > 10 µM | > 10 µM | > 10 µM | > 10 µM | > 10 µM | > 10 µM | > 10 µM | > 10 µM |
| N/C(=N\CCCC(N)C(=O)O)N[N+](=O)[O-] [L-NNA] | > 10 µM | > 10 µM | > 10 µM | > 10 µM | > 10 µM | > 10 µM | > 10 µM | > 10 µM | > 10 µM | > 10 µM | > 10 µM | > 10 µM | > 10 µM | > 10 µM |
| O=C1O[C@H]([C@@H](O)CO)C(O)=C1O [Vitamin C (ascorbate)] | > 10 µM | > 10 µM | > 10 µM | > 10 µM | > 10 µM | > 10 µM | > 10 µM | > 10 µM | > 10 µM | > 10 µM | > 10 µM | > 10 µM | > 10 µM | > 10 µM |
| CC(C)c1nc(CN(C)C(=O)N[C@H](C(=O)N[C@@H](Cc2ccccc2)C[C@H](O)[C@H](Cc2ccccc2)NC(=O)OCc2cncs2)C(C)C)cs1 [Ritonavir] | 6.62 µM | > 10 µM | > 10 µM | > 10 µM | > 10 µM | > 10 µM | > 10 µM | > 10 µM | > 10 µM | > 10 µM | > 10 µM | > 10 µM | > 10 µM | > 10 µM |
| CCCCCCCCCCC[C@@H](C[C@@H]1OC(=O)[C@H]1CCCCCC)OC(=O)[C@H](CC(C)C)NC=O [Orlistat] | > 10 µM | > 10 µM | > 10 µM | > 10 µM | > 10 µM | > 10 µM | > 10 µM | > 10 µM | > 10 µM | > 10 µM | > 10 µM | > 10 µM | > 10 µM | > 10 µM |
| CCCc1cc(-c2nc(-c3ccc(C)cc3)cs2)ccn1 [Fatostatin] | 6.07 µM | > 10 µM | 8.84 µM | > 10 µM | > 10 µM | 2.76 µM | > 10 µM | > 10 µM | 6.69 µM | > 10 µM | > 10 µM | > 10 µM | 4.85 µM | > 10 µM |
